From PubChem BioAssay (NCI)
Several values for one entry are separate records, joined by “and”; a condition that tells them apart may be missing. Equal values may be shown once.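 Dose response: 5 concentrations. Exposure: 48 h. Format: 96-well plates. Endpoint: linear interpolation; highest concentration if not reached. GI50 = concentration required for 50% inhibition of growth. TGI marks complete inhibition of growth.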

What was measured:
Assay in all cases: NCI tumour cell line growth inhibition, 48 h
[1] = tested on: SK-OV-3 ovarian
[2] = tested on: MOLT-4 leukemia
[3] = tested on: SF-539 CNS
[4] = tested on: HL-60(TB) leukemia
[5] = tested on: SN12C renal
[6] = tested on: OVCAR-3 ovarian
[7] = tested on: ACHN renal
[8] = tested on: KM12 colon
[9] = tested on: SNB-75 CNS
[10] = tested on: LOX IMVI melanoma

SMILES | TGI [1] | TGI [2] | TGI [3] | TGI [4] | TGI [5] | TGI [6] | TGI [7] | TGI [8] | TGI [9] | TGI [10] | GI50 [1] | GI50 [2] | GI50 [3] | GI50 [4] | GI50 [5] | GI50 [6] | GI50 [10] | GI50 [7] | GI50 [8] | GI50 [9]
O=C1CCCC1NC(=O)C(F)(F)F (centres undefined) | > 100 µM | > 100 µM | > 100 µM | > 100 µM | > 100 µM | > 100 µM | > 100 µM | > 100 µM | > 100 µM |  |  |  |  |  |  |  |  |  |  | 
CCOC(=O)NC(=O)c1cn(CCN2CCN(C(=O)NCCCCCCNC(=O)N3CCN(CCn4cc(C(=O)NC(=O)OCC)c(=O)n(CCN(CC)CC)c4=O)CC3)CC2)c(=O)n(CCC(CC)CC)c1=O | > 100 µM |  | > 100 µM | > 100 µM | > 100 µM | > 100 µM | > 100 µM | > 100 µM | > 100 µM | > 100 µM |  |  |  |  |  |  |  |  |  | 
N#Cc1nc2cc(F)c(F)cc2nc1-c1ccc(Cl)cc1 | > 88 µM | > 28.3 µM | > 100 µM | > 28.2 µM | 34.8 µM | 8.28 µM | 43.8 µM | > 100 µM | 83.1 µM | 2.68 µM | > 46.7 µM | 3.21 µM | > 60.6 µM | 3.43 µM | 6.83 µM | 2.24 µM | 1.32 µM | 10.4 µM | 51.9 µM | 33.1 µM
Clc1ccc(SCCCCCCCCCCSc2ccc(Cl)cc2)cc1 | > 100 µM | > 100 µM | > 100 µM | > 100 µM | > 100 µM | > 70.7 µM | > 73.5 µM | > 70.4 µM | > 100 µM | > 100 µM |  |  |  |  |  |  |  |  |  | 
CC1=C(C(=O)Nc2ccc(F)c(Cl)c2)C(c2cccc(Oc3ccccc3)c2)NC(=O)N1 (centres undefined) | 32.7 µM |  | 28.3 µM | 24.7 µM | 32.8 µM | 57.3 µM | 28.4 µM | 34.3 µM | 20.4 µM | 28.7 µM | 18 µM |  | 14.6 µM | 8.07 µM | 16.1 µM | 20.7 µM | 15.4 µM | 15.1 µM | 14.9 µM | 7.53 µM
O=C1C[C@H]2CC3(CC[C@H]2CN1)OCCO3 | > 100 µM | > 100 µM | > 100 µM | > 100 µM | > 100 µM | > 100 µM |  | > 100 µM | > 100 µM | > 100 µM |  |  |  |  |  |  |  |  |  | 
CS(=O)(=O)Nc1cc(-c2ccc3ncnc(Nc4ccc5c(cnn5Cc5ccccc5F)c4)c3c2)cnc1Cl | 3.96 µM | 7.48 µM | 4.9 µM | 6.02 µM | > 100 µM | 3.13 µM | > 52.9 µM | 8.1 µM | 2.4 µM | 4.71 µM | 0.845 µM | 1.54 µM | 1.09 µM | 1.02 µM | 1.13 µM | 0.795 µM | 1.69 µM | 3.24 µM | 2.48 µM | 0.157 µM
CCOC1C=CCCO1 (centres undefined) | > 100 µM | > 100 µM | > 100 µM | > 100 µM | > 100 µM | > 100 µM | > 100 µM | > 100 µM | > 100 µM | > 100 µM |  |  |  |  |  |  |  |  |  | 
NCCCCN(Cc1nc2ccccc2[nH]1)[C@H]1CCCc2cccnc21 | > 86.5 µM | 69.4 µM | 27.6 µM | 26.7 µM | > 100 µM | > 100 µM | > 100 µM | > 100 µM | > 100 µM | 38.2 µM | 18.6 µM | 17.5 µM | 13.3 µM | 5.34 µM | 14.9 µM | 15.3 µM | 12 µM | 26.3 µM | 15.5 µM | 8.53 µM
COc1cc(/C=C2/C(=O)NC(Cc3cc(OC)c(OC)c(C)c3OC)C(=O)N2Cc2ccccc2)c(OC)c(C)c1OC (centres undefined) | > 100 µM | 70.5 µM | > 100 µM | 53.3 µM | > 100 µM | > 100 µM | > 100 µM | > 100 µM | > 100 µM | > 100 µM |  |  |  |  |  |  |  |  |  | 
CN(C)c1ccc(O)c2c1C[C@H]1C[C@H]3[C@H](N(C)C)C(=O)C(C(N)=O)=C(O)[C@@]3(O)C(=O)C1=C2O | > 100 µM | 40.6 µM | 15.5 µM | 40.4 µM | > 100 µM | 39.5 µM | > 100 µM | 27.4 µM | 68.7 µM | 31.9 µM | 3.92 µM | 10.7 µM | 3.88 µM | 7.44 µM | 4.8 µM | 4.92 µM | 3.64 µM | 4.09 µM | 6.29 µM | 4.88 µM
CNc1nc(N(C)C)nc(N(C)C)n1 | > 100 µM and 3640 µM | > 100 µM and 7060 µM | > 100 µM and 3580 µM | > 100 µM and 4200 µM | > 100 µM and 3960 µM | > 100 µM and 2300 µM | > 100 µM and 3610 µM | > 100 µM and 3420 µM | > 100 µM and 1980 µM | > 100 µM and 5150 µM | > 100 µM and 1390 µM | > 100 µM and 1810 µM | > 100 µM and 1350 µM | > 100 µM and 2350 µM | > 100 µM and 2050 µM | > 100 µM and 981 µM | > 100 µM and 901 µM | > 100 µM and 1900 µM | > 100 µM and 1450 µM | > 100 µM and 473 µM
CCOC(=O)C#Cc1c(CC(=O)OCC)nnn1[C@H]1O[C@@H](CO)[C@@H]2OC(C)(C)O[C@@H]21 | > 100 µM | 7.73 µM |  | 5.71 µM | 9.01 µM | 3.22 µM | 4.11 µM | 32.7 µM | 22.9 µM | 2.97 µM | 37.3 µM | 2.79 µM |  | 1.86 µM | 3.06 µM | 1.75 µM | 1.35 µM | 1.97 µM | 16.4 µM | 10.7 µM
N=C(N)c1ccc(-c2ccc(-c3cccs3)s2)nc1 | 5.88 µM | 4.13 µM | 3.08 µM | 4.01 µM | 5.38 µM | 2.31 µM | 3.33 µM | 3.6 µM | 4.52 µM |  | 1.56 µM | 1.96 µM | 1.57 µM | 1.78 µM | 1.68 µM | 0.234 µM |  | 1.76 µM | 1.88 µM | 1.78 µM
CC(C)CCc1c(Cl)nc(Cl)nc1Cl | 37.6 µM | > 100 µM | 56.5 µM | > 100 µM | 57.9 µM | 24.3 µM | 92.3 µM |  | 22.3 µM | 11.8 µM |  |  |  |  |  |  |  |  |  | 
COc1cc(C(=O)CC2(O)C(=O)Nc3c(Cl)cc(Cl)cc32)ccc1O (centres undefined) | > 100 µM | > 100 µM |  | > 100 µM | > 100 µM | > 100 µM | > 100 µM | > 100 µM | 93 µM | > 100 µM |  |  |  |  |  |  |  |  |  | 
Cc1ccc(C2=C(c3ccccc3)C(Br)(c3ccccc3)C(c3ccccc3)=C2c2ccc(C)cc2)cc1 | > 100 µM | > 100 µM | > 100 µM | > 100 µM | > 100 µM | > 100 µM | > 100 µM | > 100 µM | > 100 µM |  |  |  |  |  |  |  |  |  |  | 
Cc1ccc(N2C(=O)/C(=C/c3ccc(N(CCC#N)CCC#N)cc3C)N=C2c2cc([N+](=O)[O-])ccc2Cl)cc1 | > 100 µM | > 100 µM | > 100 µM | > 100 µM | > 100 µM | > 100 µM | > 100 µM | > 100 µM | > 100 µM |  |  |  |  |  |  |  |  |  |  | 
N#CC(C#N)=C1SCC(=O)CS1 | > 100 µM | > 100 µM | > 100 µM | > 100 µM | > 100 µM | > 100 µM |  | > 100 µM | > 100 µM | > 100 µM |  |  |  |  |  |  |  |  |  | 
C/C(=N\O)C(CN1CCCCC1)C(c1ccccc1)c1c(O)c2ccccc2oc1=O (centres undefined) | > 100 µM |  | > 100 µM | > 10 µM | > 100 µM | > 100 µM | > 100 µM |  | > 100 µM | > 100 µM |  |  |  |  |  |  |  |  |  | 
Cc1nn(-c2nc3ccccc3[nH]2)c2c1C(c1ccc3c(c1)OCO3)CC(=O)N2 (centres undefined) | 5.77 µM | 0.214 µM | 4.82 µM | 7.74 µM | 9.77 µM | 5.17 µM | > 100 µM | 5.45 µM | 8.09 µM |  | 2.63 µM | 0.0422 µM | 2.16 µM | 2.84 µM | 2.77 µM | 2.38 µM |  | 4.07 µM | 2.33 µM | 2.69 µM
Cc1cccc2c1C(=O)OC2(C)c1cccc2ccccc12 (centres undefined) |  | 88.8 µM |  | 46.2 µM | 56 µM | 78.8 µM | > 100 µM | > 100 µM | 87.7 µM | > 100 µM |  |  |  |  |  |  |  |  |  | 
Cn1c(=O)c(C(=O)NC(=O)OCc2ccccc2)cn(CCSCCOC(=O)NCCCCCCNC(=O)OCCSCCn2cc(C(=O)NC(=O)OCc3ccccc3)c(=O)n(C)c2=O)c1=O |  | > 100 µM | > 100 µM | > 100 µM | > 100 µM |  | > 100 µM |  | 48.9 µM | > 100 µM |  |  |  |  |  |  |  |  |  | 
Cc1ccc(/C=C2\CCCC\C2=N\O)cc1 | > 100 µM |  | > 100 µM | 30.7 µM | > 100 µM | > 100 µM | > 100 µM |  | 81.3 µM | > 100 µM |  |  |  |  |  |  |  |  |  | 
Cc1cccc2c1C/C(=C1\CCc3c(C)cccc31)C2=O | > 100 µM | > 100 µM |  | > 100 µM | > 100 µM | > 100 µM | > 100 µM | > 100 µM | > 100 µM | > 100 µM |  |  |  |  |  |  |  |  |  | 
